Patent US20060252683A1, “Preparation of a peptide compound (SYRAPRO-2000) and its use for the activation of protein phosphatase-2A1 enzyme” (priority 2005, published 2006)

Target: protein phosphatase-2A1 (Homo sapiens, UniProt P67775)
Test: Activation of protein phosphatase-2A1 in intact Jurkat cells (DEAE Sepharose fractions of extracts assayed)
Format: cell-based
Parameters: Protein phosphatase-2A1 purified from CD^4+ T cells as described in materials and method; endogenous in cells; host or cells: Jurkat cells; enzyme purified by DEAE Sepharose, Sephacryl S-300 HR and poly-L-lysine Agarose
Conditions: Jurkat cells treated with 1000 nM for 1 hour, 0.001% DMSO
Procedure: Jurkat cells (a CD^4+ T cell line) were grown in RPMI 1640 and 10% (v/v) fetal bovine serum. 1600 ml of cell suspension (10^6 cells per ml) were split into two flasks and one was treated with SYRAPRO-2000 for 1 hour (circles) while the other was not (squares). The cells from each flask were collected by centrifugation, washed with 50 mM Imidazole-Cl pH 7.2 plus 150 mM NaCl and then homogenized in homogenization buffer as described in materials and methods. The homogenate from each flask was chromatographed on a DEAE Sepharose column and the eluted fractions were assayed for type 2A protein phosphatase activity as described in materials and method. Similar results were obtained in 3 independent experiments.
The effect of synthesized SYRAPRO-2000 on protein phosphatase-2A1 can be determined in intact cells. Jurkat cells, a human CD^4+ T transformed cell line. Jurkat cells are grown in RPMI 1680 medium supplemented with 5% (v/v) fetal bovine serum and antibiotics and treated or not with 1 μM of SYRAPRO-2000 for 60 minutes. Following treatment with SYRAPRO-2000, cells are harvested by centrifugation, washed and homogenized. A cell extract is prepared by centrifugation and loaded onto a DEAE Sepharose column which is washed and eluted with a liner gradient of buffer plus 0 mM NaCl to buffer plus 400 mM NaCl. […]

Sequence of protein phosphatase-2A1 (P67775 whole entry): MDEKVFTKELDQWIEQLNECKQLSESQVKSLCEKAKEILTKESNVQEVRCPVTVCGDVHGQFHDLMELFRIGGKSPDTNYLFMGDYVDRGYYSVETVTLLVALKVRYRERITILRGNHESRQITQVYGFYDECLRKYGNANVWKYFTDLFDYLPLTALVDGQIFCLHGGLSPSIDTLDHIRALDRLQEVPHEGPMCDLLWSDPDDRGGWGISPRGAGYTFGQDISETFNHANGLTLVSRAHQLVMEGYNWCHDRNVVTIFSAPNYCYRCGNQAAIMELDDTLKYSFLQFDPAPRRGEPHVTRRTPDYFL
Sequence of protein phosphatase-2A1 (P30153 whole entry partner): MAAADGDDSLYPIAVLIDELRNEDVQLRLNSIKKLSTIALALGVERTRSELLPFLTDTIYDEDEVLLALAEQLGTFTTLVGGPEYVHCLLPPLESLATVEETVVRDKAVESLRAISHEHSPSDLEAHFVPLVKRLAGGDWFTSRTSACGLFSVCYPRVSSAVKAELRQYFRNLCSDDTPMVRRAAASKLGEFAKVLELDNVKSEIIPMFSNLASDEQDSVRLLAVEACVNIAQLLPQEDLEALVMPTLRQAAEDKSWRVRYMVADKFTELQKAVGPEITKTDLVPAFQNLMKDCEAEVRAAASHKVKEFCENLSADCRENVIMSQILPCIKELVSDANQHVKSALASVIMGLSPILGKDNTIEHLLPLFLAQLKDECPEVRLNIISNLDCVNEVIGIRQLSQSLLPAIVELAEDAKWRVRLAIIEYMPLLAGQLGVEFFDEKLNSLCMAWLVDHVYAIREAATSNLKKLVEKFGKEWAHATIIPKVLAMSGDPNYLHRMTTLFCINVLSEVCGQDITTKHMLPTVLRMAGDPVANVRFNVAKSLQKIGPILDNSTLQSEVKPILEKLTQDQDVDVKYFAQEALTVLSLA
Sequence of protein phosphatase-2A1 (P63151 whole entry partner): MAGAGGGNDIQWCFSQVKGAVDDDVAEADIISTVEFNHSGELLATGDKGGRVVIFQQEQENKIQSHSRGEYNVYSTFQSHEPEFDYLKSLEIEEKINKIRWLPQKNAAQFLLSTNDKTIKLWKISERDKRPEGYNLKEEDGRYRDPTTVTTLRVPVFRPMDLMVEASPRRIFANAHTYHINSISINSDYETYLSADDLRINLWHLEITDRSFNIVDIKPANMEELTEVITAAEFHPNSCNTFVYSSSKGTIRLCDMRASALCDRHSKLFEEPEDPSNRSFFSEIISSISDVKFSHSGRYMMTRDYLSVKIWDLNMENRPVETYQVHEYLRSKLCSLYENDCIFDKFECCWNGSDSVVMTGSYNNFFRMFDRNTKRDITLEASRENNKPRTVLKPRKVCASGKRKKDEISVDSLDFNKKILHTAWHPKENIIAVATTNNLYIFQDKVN

## CC[C@H](C)[C@H](NC(=O)[C@H](CCCNC(=N)N)NC(=O)[C@H](CO)NC(=O)[C@H](Cc1c[nH]cn1)NC(=O)[C@H](CCCNC(=N)N)NC(=O)[C@H](CS)NC(=O)CNC(=O)[C@@H](NC(=O)[C@H](CCCNC(=N)N)NC(=O)[C@H](Cc1ccccc1)NC(=O)[C@@H](N)Cc1c[nH]cn1)[C@@H](C)CC)C(=O)NCC(=O)N[C@H](C(=O)N[C@H](C(=O)N[C@@H](CCCNC(=N)N)C(=O)N[C@@H](CCC(N)=O)C(=O)N[C@@H](CCCNC(=N)N)C(=O)N[C@@H](CCCNC(=N)N)C(=O)N[C@@H](C)C(=O)N[C@@H](CCCNC(=N)N)C(=O)N[C@@H](CC(N)=O)C(=O)NCC(=O)N[C@@H](C)C(=O)N[C@@H](CO)C(=O)N[C@@H](CCCNC(=N)N)C(=O)N[C@@H](CO)C(=O)O)[C@@H](C)O)C(C)C [SYRAPRO-2000]
  activity of protein phosphatase-2A1 in intact cells: became activated
